Laboratory results from PubChem BioAssay (NCI).
Where “and” joins values, the source holds several entries; their conditions need not be identical. Identical values can stand only once.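 Assay format: 96-well plates, 48-hour exposure. GI50: concentration for 50% inhibition of growth. TGI marks complete inhibition of growth.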

Legend:
Experiment in all cases: NCI anticancer screen, dose series, 48 h
[1] = system: SK-MEL-5 melanoma
[2] = system: UO-31 renal
[3] = system: SF-268 CNS
[4] = system: SN12C renal
[5] = system: MALME-3M melanoma
[6] = system: K-562 leukemia
[7] = system: OVCAR-4 ovarian
[8] = system: U251 CNS
[9] = system: LOX IMVI melanoma
[10] = system: RPMI-8226 leukemia
[11] = system: SW-620 colon
[12] = system: UACC-257 melanoma
[13] = system: HCC-2998 colon
[14] = system: SNB-19 CNS
[15] = system: PC-3 prostate
[16] = system: HOP-92 NSCLC

SMILES | TGI [1] | TGI [2] [µM] | TGI [3] [µM] | TGI [4] [µM] | TGI [5] [µM] | TGI [6] [µM] | TGI [7] | TGI [8] | TGI [9] [µM] | TGI [10] [µM] | TGI [11] [µM] | TGI [12] | TGI [13] [µM] | TGI [14] [µM] | TGI [15] | TGI [16] | GI50 [8] | GI50 [9] | GI50 [15]
CC1(Cc2cc3c(cc2C2(c4ccc([N+](=O)[O-])cc4)OCCO2)OCO3)OCCO1 | > 100 µM | > 100 | > 100 | > 100 | > 100 | > 100 | > 100 µM | > 100 µM | > 100 | 78.4 | > 100 | > 100 µM | > 100 | > 100 | > 100 µM |  |  |  | 
O=C1OC(C2Cc3ccc4c(c3C2=O)CCCC4)c2ccccc21 (centres undefined) | 84.7 µM | > 100 | > 100 | > 100 | > 100 | > 100 | > 100 µM | > 100 µM | > 100 | > 100 | > 100 | > 100 µM | 94.6 | > 100 | > 100 µM |  |  |  | 
Oc1ccc2ccccc2c1NCn1nc(CCCCCCCCc2nn(CNc3c(O)ccc4ccccc34)c(=S)o2)oc1=S | > 100 µM | > 100 | > 100 | > 100 | > 100 | > 100 | > 100 µM | > 100 µM |  | > 100 | > 100 | > 100 µM | > 100 | > 100 | > 100 µM | > 100 µM |  |  | 
CC(CC(C)[C@H]1CCC2[C@H]3C(CC(=O)[C@@]21C)[C@@]1(C)CCC(O)C[C@H]1C[C@@H]3O)C(=O)O (some centres undefined) |  | > 100 | > 100 | > 100 | > 100 | > 100 | > 100 µM | > 100 µM | > 100 | > 100 | > 100 | > 100 µM | > 100 | > 100 | > 100 µM | > 100 µM |  |  | 
COc1cccc(N2C(=O)C3c4[nH]c5ccc(C)cc5c4C4CCC(C)CC4C3C2=O)c1 (centres undefined) | > 100 µM | > 100 | > 100 | > 100 | > 100 | > 100 |  | > 100 µM | > 100 | > 100 | > 100 | > 100 µM | > 100 | > 100 | > 100 µM | > 100 µM |  |  | 
CCC1(CC)C(=O)NN(C(=O)c2ccc(Cl)cc2)C1=O | > 100 µM | > 100 | > 100 | > 100 | 18.1 | > 100 | > 100 µM | > 100 µM | > 100 | > 100 | > 100 | > 100 µM | > 100 | > 100 | > 100 µM |  |  |  | 
Cc1ccc(C2=Nn3c(nc4sc5c(c4c3=O)CCCC5)SC2)cc1 | > 100 µM | > 100 | > 100 | > 100 | > 100 | > 100 | > 100 µM | > 100 µM | > 100 | > 100 | > 100 | > 100 µM | > 100 |  | > 100 µM | > 100 µM |  |  | 
CCOC(=O)CNC(=O)CNC(=O)CNC(=O)CNNc1c(OCc2ccccc2)c(=O)c1=O | > 100 µM | > 100 | > 100 | > 100 | > 100 | > 100 | > 100 µM | > 100 µM |  | > 100 | > 100 | > 100 µM | > 100 | > 100 | > 100 µM |  |  |  | 
CN(C(=O)c1cc2c(s1)sc1c(=O)n(C)c3ccccc3c12)c1ccccc1 | > 100 µM | 24.5 |  | > 100 | > 100 | > 100 | > 100 µM | > 100 µM | > 100 |  |  | > 100 µM | > 100 | > 100 | > 100 µM | > 100 µM |  |  | 
CCNC1=C(NC(=O)c2ccc(OC)cc2)C(=O)c2ccccc2C1=O | > 100 µM |  | > 100 | > 100 | 50.9 | > 100 | > 100 µM | > 100 µM |  | > 100 | > 100 | 48 µM | > 100 | > 100 | > 100 µM | > 100 µM |  |  | 
CC(=O)c1c2c(cc3c1CC1(C3)Cc3cc4c(c(C(C)=O)c3C1)CCCC4)CCCC2 | 35.4 µM | 0.314 |  | > 100 | > 100 | > 100 | > 100 µM | > 100 µM | > 100 | > 100 |  | > 100 µM | > 100 |  | > 100 µM | > 100 µM |  |  | 
CNC(=O)OCc1nc(N=[N+]=[N-])n(C)c1COC(=O)NC | > 10 µM | > 10 | > 100 | > 100 | > 100 | > 100 | > 100 µM | > 100 µM | > 100 | > 100 | > 100 | > 100 µM | > 100 |  | > 100 µM | 86.7 µM |  |  | 
C=CCN1C(=O)/C(=C/c2ccc(OC)cc2)N=C1SC1OC(COC(C)=O)C(OC(C)=O)C(OC(C)=O)C1OC(C)=O (centres undefined) | 45.2 µM and > 100 µM |  |  | 89.4 | > 100 | > 100 | 15 µM and > 100 µM | 58.8 µM and > 100 µM | > 100 | > 100 | > 100 | 45.9 µM and > 100 µM | > 100 | > 100 | 37.1 µM and > 100 µM | 46.4 µM and 59.4 µM | 14.8 µM and 99.1 µM | 21.1 µM and 43.1 µM | 16.9 µM and 52.6 µM
COC(=O)/C=C1/OC(c2ccc(C)cc2C)=CC1=O | 38.2 µM | 30.5 | 48.9 |  | 29.9 | 10.8 |  | 31.1 µM | 17.6 | > 100 | 10.4 |  | 30.5 |  | 34.9 µM | 45.6 µM |  |  | 
CC(C(=O)O)C1Nc2ccccc2NC1=O (centres undefined) | > 100 µM | > 100 | > 100 |  | > 100 | > 100 | > 100 µM | > 100 µM | > 100 | > 100 | > 100 | > 100 µM | > 100 | > 100 | > 100 µM | > 100 µM |  |  | 
COc1cc(/C=C2\C(=O)N(c3ccc(NC(C)=O)cc3)C(c3ccccc3)S2(=O)=O)cc(OC)c1OC (centres undefined) | > 100 µM | > 100 |  | > 100 | > 100 | > 100 | > 100 µM | > 100 µM | > 100 | > 100 | > 100 | > 100 µM | > 100 | > 100 | > 100 µM | > 100 µM |  |  | 
N/N=C(/CC(O)(C(F)(F)F)C(F)(F)F)c1ccccc1 | > 10 µM |  | > 10 | > 10 | > 10 | > 10 | > 10 µM | > 10 µM | > 10 | > 10 | > 10 | > 10 µM | > 10 | > 10 | > 10 µM | > 10 µM |  |  | 
CNc1cccc2c1C(C)C[C@]1(C)C(=O)Nc3ccccc3[C@H]21 (some centres undefined) | > 100 µM | 52.4 | > 100 | 48.5 | 47.7 | > 100 | 35.9 µM |  | 33.7 | > 100 | > 100 | 39.3 µM | > 100 | 54 | 74.5 µM |  |  |  | 
N#CCCN(CCCN(C(=O)Nc1ccc(NC(=O)N(CCCN(CCC#N)C(N)=O)c2ccccc2)cc1)c1ccccc1)C(N)=O | > 100 µM | > 100 | > 100 |  | > 100 | > 100 | > 100 µM | > 100 µM | > 100 | > 100 | > 100 | > 100 µM | > 100 | > 100 | > 100 µM | > 100 µM |  |  | 
COC(=O)C1=C(C(=O)OC)C(OO)(c2ccccc2)OC1=O (centres undefined) | > 100 µM | > 100 |  | > 100 | > 100 | > 100 | > 100 µM | > 100 µM | 96 |  | > 100 | > 100 µM | > 100 | > 100 | > 100 µM | > 100 µM |  |  | 
N#Cc1nc(-c2ccc(-c3nc(C#N)c(N)o3)cc2)oc1N | > 10 µM | > 10 | > 10 | > 10 | > 10 | > 10 | > 10 µM |  | > 10 | > 10 | > 10 | > 10 µM | > 10 | > 10 | > 10 µM | > 10 µM |  |  | 
Cn1c(-c2cccs2)cc(-c2ccsc2)c1-c1cccs1 |  | > 100 | > 100 | > 100 | > 100 | > 100 | > 100 µM | > 100 µM |  |  | > 100 | > 100 µM | > 100 | > 100 | > 100 µM | > 100 µM |  |  | 
Cn1nc(S(N)(=O)=O)s/c1=N/S(=O)(=O)c1ccc(N)cc1 |  | > 100 | > 100 |  | > 100 |  | > 100 µM | > 100 µM |  | > 100 | > 100 |  | > 100 | > 100 | > 100 µM | > 100 µM |  |  | 
CC(C)(C)Cc1cc(O)ccc1O |  | > 100 | > 100 | > 100 | > 100 | > 100 | > 100 µM | > 100 µM | > 100 |  | > 100 | > 100 µM | > 100 | > 100 | > 100 µM | > 100 µM |  |  | 
